{
  "source": "patent US10278949B2",
  "about": "“Method for obtaining an extract rich in ellagic acid tannins from fruits that contain these compounds, and resulting extract” (UNIVERSIDAD DE COSTA RICA, priority 2011, dated 2019)",
  "type_in_all_cases": "physicochemical",
  "conditions_in_all_cases": "mean ± DE of three replicate experiments",
  "key": {"[1]": {"test": "DPPH radical removal", "source_text": "(§1) We confirmed the removal activity of the polyphenol rich extract from microfiltered blackberry juice using different methods (Chart 11), and this activity was compared with the flavonoid remover of quercetin radicals."}, "[2]": {"test": "Antioxidant capacity (ORAC)", "source_text": "as §1"}, "[3]": {"test": "NO removal assay", "method": "as §1\nFour hours of pretreatment with the blackberry extract reduced NO production in a dose dependent manner only when the LPS+IFNγ was incubated with the extract (no wash). If the extract is removed before the addition of LPS+IFNγ (with rinsing), inhibition of NO production was seen only in the highest concentration tested."}},
  "note": "Marks after values point to notes of the source that are not given here.",
  "data": [
    {"smiles": "O=c1c(O)c(-c2ccc(O)c(O)c2)oc2cc(O)cc(O)c12", "note": "[Quercetin]", "values": [
      {"measurement": "DPPH IC50", "setting": "[1]", "value": "2.17 ± 0.08^b μg/mL"},
      {"measurement": "ORAC", "setting": "[2]", "value": "2067 ± 81^b μM TE/g"},
      {"measurement": "No Removal IC50", "setting": "[3]", "value": "6.57 ± 0.8^b μg/mL"}
    ]}
  ]
}
